This experiment addresses T1, hMOR (Homo sapiens, UniProt P35372).
T1 construct: host or cells: CHO-K1
Briefly: cell-based. It counts as cell-based. The note with it: for AUC: AUC of [Ca2+]i fluorescence. The protocol:
Chinese hamster ovary (CHO)-K1 cells expressing hMOR and Gα15 (CHO-K1/MOR/Gα15) were cultured in F12 medium (GIBCO) supplemented with 10 μg/mL Hygromycin B (Invivogen), 20 μg/mL Zeocin (Invivogen) and P/S/F (100 units/mL penicillin, 100 μg/mL streptomycin, 10% fetal bovine serum). The cultures were incubated at 37° C. in a humidified 5% CO2 incubator.
One day prior to running the assay, CORNING® black 96-well assay plates having a clear flat bottom were coated with a 0.1 mg/mL Poly-L-Lysine solution. CHO-K1/MOR/Gα15 cells were suspended in F12 medium and plated at a density of about 8×10^4 cells/well in 200 μL medium. Cells were incubated under a humidified atmosphere of 10% CO2 at 37° C. overnight to reach an 80-90% confluent cell monolayer before the assay. On the day of the assay, 150 μL medium was removed from each well of the plates. To each well were added FLIPR® calcium assay reagents (Molecular Devices Corporation, Sunnyvale, Calif., USA; 50 μL) dissolved in 1× assay buffer (HBSS: KCl 5 mM, KH2PO4 0.3 mM, NaCl 138 mM, NaHCO3 4 mM, Na2HPO4 0.3 mM, d-glucose 5.6 mM, with additional 20 mM HEPES and […], pH 7.4) and 2.5 mM probenecid. After incubation at 37° C. for 1 hour, a test compound, alone or together with naloxone (a MOR antagonist), was also added to each well. Using a FlexStationlll instrument (Molecular Devices Corp.), increments of the [Ca^2+]i fluorescence after robotic injection of the cell suspension were monitored at 1.52 s intervals using the excitation wavelength of 485 nm and the emission wavelength of 525 nm. The [Ca^2+]i fluorescence was measured up to 90 s after the injection. The fluorescence intensity from 6 to 12 wells of cells were averaged and the relative amount of [Ca^2+]i release was determined by integrating the AUC of the [Ca^2+]i fluorescence averages.
A CHO-K1 cell line expressing MOR and Gα15 (GenScript) was used to set up a sensitive high-throughput screen (HTS) system. […] The HTS was performed in the absence or presence of naloxone (an opioid antagonist; 20 nM), to identify AAMs.

Where [1] appears, read: combined with naloxone, CHO-K1/MOR/Gα15 cells.
Where [2] appears, read: combined with naloxone, CHO-K1/MOR/Gα15 cells, read-out: EC50.
Setting [3] is: EC50, combined with naloxone, CHO-K1/MOR/Gα15 cells.

Read-outs that look alike come from different tables or passages of the source.

What is called EC50 is the concentration giving half of the maximal effect.

T1 sequence (P35372 whole entry): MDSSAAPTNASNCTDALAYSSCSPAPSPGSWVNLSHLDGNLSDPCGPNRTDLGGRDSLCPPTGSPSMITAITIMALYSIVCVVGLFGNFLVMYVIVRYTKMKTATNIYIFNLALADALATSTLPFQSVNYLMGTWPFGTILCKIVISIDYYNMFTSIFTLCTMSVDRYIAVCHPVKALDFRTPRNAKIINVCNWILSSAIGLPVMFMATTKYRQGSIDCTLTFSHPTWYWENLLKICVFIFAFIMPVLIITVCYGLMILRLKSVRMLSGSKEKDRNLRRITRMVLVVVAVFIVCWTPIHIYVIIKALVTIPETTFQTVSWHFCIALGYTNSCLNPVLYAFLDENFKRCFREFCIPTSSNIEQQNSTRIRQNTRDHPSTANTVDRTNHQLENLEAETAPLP

`Cc1ccc(Nc2nc(-c3oc(C)nc3C)cs2)c(C)c1` [Compound 105, 4-(2,4-Dimethyl-1,3-oxazol-5-yl)-N-(2,4-dimethylphenyl)-1,3-thiazol-2-amine]: the AUC result under setting [1] was “+ (+: >5000)”. Besides, under setting [2], the EC50 is over 10 µM.

For the molecule `CCc1ccccc1Nc1nc(-c2cc(-c3ccccc3)no2)cs1` [Compound 129, N-(2-Ethylphenyl)-4-(3-phenyl-1,2-oxazol-5-yl)-1,3-thiazol-2-amine], under setting [1], the AUC entry was “− (−: <5000)”. In addition, the concentration giving a half-maximal response (EC50) under setting [2] is over 10 µM.

As for `CCc1ccccc1Nc1nc(-c2ccc(C)cc2)cs1` [Compound 121, N-(2-Ethylphenyl)-4-(4-methylphenyl)-1,3-thiazol-2-amine], the AUC entry under setting [1] is listed as “− (−: <5000)”. Further, the EC50 under setting [2] is over 10 µM.

In the case of `Cc1nc(C)c(-c2csc(Nc3cccc(Cl)c3C)n2)s1` [Compound 77, N-(3-Chloro-2-methylphenyl)-2′,4′-dimethyl-4,5′-bi-1,3-thiazol-2-amine], under setting [1], the AUC result is listed as “− (−: <5000)”. Also, the EC50 under setting [2] is over 10 µM.

As to `COc1cccc(C)c1Nc1nc(-c2sc(C)nc2C)cs1` [Compound 4, N-(2-Methoxy-6-methylphenyl)-2′,4′-dimethyl-4,5′-bi-1,3-thiazol-2-amine], under setting [1], the AUC result is recorded as “+ (+: >5000)”. The EC50 under setting [2] was over 10 µM.

Consider `COc1cccc(Nc2nc(-c3sc(C)nc3C)cs2)c1C` [Compound 85, N-(3-Methoxy-2-methylphenyl)-2′,4′-dimethyl-4,5′-bi-1,3-thiazol-2-amine], for which the AUC result under setting [1] is recorded as “+ (+: >5000)”. Besides, the EC50 is, setting by setting: (EC50, combined with naloxone) under 10 µM; under setting [3], 3 to 10 µM.

In the case of `Cc1nc(C)c(-c2csc(Nc3cccc(C(F)(F)F)c3C)n2)s1` [Compound 87, 2′,4′-Dimethyl-N-[2-methyl-3-(trifluoromethyl)phenyl]-4,5′-bi-1,3-thiazol-2-amine], under setting [1], the AUC entry is given as “− (−: <5000)”. In addition, under setting [2], the 50% effective concentration (EC50) was over 10 µM.

Take `CCc1ccc(C)nc1Nc1nc(-c2sc(C)nc2C)cs1` [Compound 82, N-(3-Ethyl-6-methyl-2-pyridinyl)-2′,4′-dimethyl-4,5′-bi-1,3-thiazol-2-amine]: the AUC result under setting [1] is reported as “− (−: <5000)”. For the same molecule, under setting [2], the EC50 was over 10 µM.

As for `CCc1ccccc1Nc1nc(-c2nccs2)cs1` [Compound 126, N-(2-Ethylphenyl)-2,4′-bi-1,3-thiazol-2′-amine], the AUC entry under setting [1] is given as “− (−: <5000)”. The half-maximal effective concentration (EC50) under setting [2] is over 10 µM.

For the molecule `Cc1nc(C)c(-c2csc(Nc3ccc(C(=O)O)cc3C)n2)s1` [Compound 57, 4-[(2′,4′-Dimethyl-4,5′-bi-1,3-thiazol-2-yl)amino]-3-methylbenzoic acid], under setting [1], the AUC result is on record as “− (−: <5000)”. Under setting [2], the EC50 is over 10 µM.

For `Cc1nc(C)c(-c2csc(Nc3ccccc3F)n2)s1` [Compound 9, N-(2-Fluorophenyl)-2′,4′-dimethyl-4,5′-bi-1,3-thiazol-2-amine], the AUC entry under setting [1] is on record as “− (−: <5000)”. Besides, the EC50 under setting [2] was over 10 µM.

As for `CCOC(=O)c1cc(-c2csc(Nc3ccccc3CC)n2)on1` [Compound 128, Ethyl 5-{2-[(2-ethylphenyl)amino]-1,3-thiazol-4-yl}-1,2-oxazole-3-carboxylate], the AUC result under setting [1] is recorded as “− (−: <5000)”. The concentration for a half-maximal effect (EC50) under setting [2] was over 10 µM.

For `Cc1nc(C)c(-c2csc(Nc3c(C(C)C)cccc3C(C)C)n2)s1` [Compound 23, N-(2,6-Diisopropylphenyl)-2′,4′-dimethyl-4,5′-bi-1,3-thiazol-2-amine], the AUC entry under setting [1] is listed as “− (−: <5000)”. Moreover, the EC50 under setting [2] was over 10 µM.

Consider `CCc1ccccc1Nc1nc(-c2sc(N)nc2C)cs1` [Compound 100, N^2-(2-ethylphenyl)-4′-methyl-4,5′-bi-1,3-thiazole-2,2′-diamine], for which, under setting [1], the AUC entry is given as “− (−: <5000)”. In addition, the EC50 under setting [2] is over 10 µM.

In the case of `Cc1nc(C)c(-c2csc(Nc3ncccc3C)n2)s1` [Compound 79, 2′,4′-Dimethyl-N-(3-methyl-2-pyridinyl)-4,5′-bi-1,3-thiazol-2-amine], under setting [1], the AUC entry is reported as “− (−: <5000)”. For the same molecule, the EC50 under setting [2] is over 10 µM.

Turning to `Cc1nc(C)c(-c2csc(Nc3cccc(F)c3C)n2)s1` [Compound 21, N-(3-Fluoro-2-methylphenyl)-2′,4′-dimethyl-4,5′-bi-1,3-thiazol-2-amine], the AUC result under setting [1] is given as “+ (+: >5000)”. The EC50 under setting [2] is over 10 µM.

Take `Cc1nc(C)c(-c2csc(Nc3c(C)cc(Cl)cc3C)n2)s1` [Compound 51, N-(4-Chloro-2,6-dimethylphenyl)-2′,4′-dimethyl-4,5′-bi-1,3-thiazol-2-amine]: the AUC entry under setting [1] is recorded as “− (−: <5000)”. Moreover, the EC50 under setting [2] is over 10 µM.

Take `Cc1nc(C)c(-c2csc(Nc3cccc(C)c3C)n2)s1` [Compound 53, N-(2,3-Dimethylphenyl)-2′,4′-dimethyl-4,5′-bi-1,3-thiazol-2-amine]: the AUC result under setting [1] is recorded as “+ (+: >5000)”. Moreover, under setting [2], the EC50 was over 10 µM.

Regarding `COc1ccc(Nc2nc(-c3sc(C)nc3C)cs2)c(OC)c1` [Compound 14, N-(2,4-Dimethoxyphenyl)-2′,4′-dimethyl-4,5′-bi-1,3-thiazol-2-amine], under setting [1], the AUC entry is “+ (+: >5000)”. For the same molecule, the EC50 under setting [2] was over 10 µM.

For the molecule `CCc1ccccc1Nc1nc(C)cs1` [Compound 132, N-(2-Ethylphenyl)-4-methyl-1,3-thiazol-2-amine], the AUC result under setting [1] was “− (−: <5000)”. Moreover, under setting [2], the concentration giving a half-maximal response (EC50) was over 10 µM.

With `Cc1nc(C)c(-c2csc(Nc3cccc(O)c3C)n2)s1` [Compound 89, 3-[(2′,4′-Dimethyl-4,5′-bi-1,3-thiazol-2-yl)amino]-2-methylphenol], the AUC result under setting [1] is recorded as “− (−: <5000)”. Under setting [2], the EC50 was over 10 µM.

`Cc1nc(C)c(-c2csc(Nc3ccccc3Oc3ccccc3)n2)s1` [Compound 6, N-(2-Phenoxyphenyl)-2′,4′-dimethyl-4,5′-bi-1,3-thiazol-2-amine]: the AUC entry under setting [1] was “− (−: <5000)”. Moreover, the concentration giving a half-maximal response (EC50) under setting [2] is over 10 µM.

With `CCc1ccccc1Nc1nc(-c2ccccn2)cs1` [Compound 123, N-(2-Ethylphenyl)-4-(2-pyridinyl)-1,3-thiazol-2-amine], the AUC result under setting [1] is listed as “− (−: <5000)”. Under setting [2], the EC50 is over 10 µM.

`COc1cc(Nc2nc(-c3sc(C)nc3C)cs2)cc(OC)c1OC` [Compound 37, 2′,4′-Dimethyl-N-(3,4,5-trimethoxyphenyl)-4,5′-bi-1,3-thiazol-2-amine]: under setting [1], the AUC entry is reported as “− (−: <5000)”. For the same molecule, the 50% effective concentration (EC50) under setting [2] is over 10 µM.

With `CCc1nc(C)c(-c2csc(Nc3ccccc3CC)n2)s1` [Compound 95, 2′-Ethyl-N-(2-ethylphenyl)-4′-methyl-4,5′-bi-1,3-thiazol-2-amine], the AUC result under setting [1] is listed as “+ (+: >5000)”. Also, the EC50 runs as follows: (EC50, combined with naloxone) under 10 µM; under setting [3], 3 to 10 µM.

In the case of `CCc1ccccc1Nc1nc(-c2ccc(C)cc2C)cs1` [Compound 120, 4-(2,4-Dimethylphenyl)-N-(2-ethylphenyl)-1,3-thiazol-2-amine], under setting [1], the AUC result was “− (−: <5000)”. Besides, under setting [2], the 50% effective concentration (EC50) was over 10 µM.

Regarding `CCc1ccccc1Nc1nc(-c2sc(-c3ccccc3)nc2C)cs1` [Compound 92, N-(2-Ethylphenyl)-4′-methyl-2′-phenyl-4,5′-bi-1,3-thiazol-2-amine], the AUC result under setting [1] is on record as “− (−: <5000)”. Under setting [2], the EC50 was over 10 µM.

For `Cc1nc(C)c(-c2csc(Nc3ccc(F)cc3C)n2)s1` [Compound 31, N-(4-Fluoro-2-methylphenyl)-2′,4′-dimethyl-4,5′-bi-1,3-thiazol-2-amine], the AUC result under setting [1] is given as “− (−: <5000)”. Further, the EC50 under setting [2] is over 10 µM.

Take `CCc1ccccc1Nc1nc2c(s1)Cc1ccccc1-2` [Compound 127, N-(2-Ethylphenyl)-8H-indeno[1,2-d][1,3]thiazol-2-amine]: under setting [1], the AUC result was “− (−: <5000)”. Besides, the EC50 under setting [2] is over 10 µM.

For the molecule `CCc1ccccc1Nc1nc(-c2sc(-c3ccc(Cl)cc3)nc2C)cs1` [Compound 94, 2′-(4-Chlorophenyl)-N-(2-ethylphenyl)-4′-methyl-4,5′-bi-1,3-thiazol-2-amine], the AUC entry under setting [1] is on record as “− (−: <5000)”. Moreover, under setting [2], the 50% effective concentration (EC50) is over 10 µM.

As to `COC(=O)Cc1cnc(Nc2nc(-c3sc(C)nc3C)cs2)s1` [Compound 111, Methyl {2-[(2′,4′-dimethyl-4,5′-bi-1,3-thiazol-2-yl)amino]-1,3-thiazol-5-yl}acetate], the AUC result under setting [1] was “− (−: <5000)”. In addition, the concentration giving a half-maximal response (EC50) under setting [2] is over 10 µM.

For the molecule `CCc1ccccc1Nc1nc(-c2ccc3c(c2)OCCCO3)cs1` [Compound 122, 4-(3,4-Dihydro-2H-1,5-benzodioxepin-7-yl)-N-(2-ethylphenyl)-1,3-thiazol-2-amine], under setting [1], the AUC result is listed as “− (−: <5000)”. In addition, under setting [2], the EC50 was over 10 µM.

The record behind these values is patent US9827228B2, “Opioid receptor modulators and use thereof” (priority 2015, dated 2017).
